The first series has as its system Plasmodium falciparum. The experiment in a line: Antiplasmodial activity against chloroquine-sensitive Plasmodium falciparum NF54 erythrocytic stages incubated for 48 hrs by [3H]-hypoxanthine incorporation assay.
Details: not given
It is filed as functional, organism-based.
A word on the IC50: it is the concentration at which inhibition is half-maximal. As for `CC(C)(C)OC(=O)N1CCN(CC(=O)Nc2cc(-c3ccc(CN4CCOCC4)cc3)nc3ccc(F)cc23)CC1`, the IC50 was determined as 7.53 µM.

For `CN1CCN(Cc2ccc(-c3cc(NC(=O)CCN4CCCC4)c4cc(F)ccc4n3)cc2)CC1`, the IC50 turned out to be 0.002 µM.

Regarding `CC(C)(C)C(=O)N1CCN(CCC(=O)Nc2cc(-c3ccc(CN4CCOCC4)cc3)nc3ccc(F)cc23)CC1`, half-maximal inhibition (IC50) was put at 0.53 µM.

The compound `O=C(NCCc1ccccn1)c1cc(-c2ccc(CN3CCOCC3)cc2)nc2ccc(F)cc12` came in with an IC50 of 14.9 µM.

Take `O=C(CCN1CCCC1)Nc1cc(-c2ccc(CN3CCOCC3)cc2)nc2ccc(F)cc12`: 0.004 µM corresponded to half-maximal inhibition (IC50).

Take `O=C(NCC(F)(F)F)c1cc(-c2ccc(CN3CCOCC3)cc2)nc2ccc(F)cc12`: 8.78 µM corresponded to half-maximal inhibition (IC50).

Regarding `CCCN1CCN(Cc2cc(-c3ccc(CN4CCOCC4)cc3)nc3ccc(F)cc23)CC1`, the IC50 turned out to be 1.94 µM.

Turning to `CCC(=O)N1CCN(C(=O)c2cc(-c3ccc(CN4CCOCC4)cc3)nc3ccc(F)cc23)CC1`, the concentration for half-maximal inhibition (IC50) was 7.38 µM.

`CCOC(=O)N1CCC(NC(=O)c2cc(-c3ccc(CN4CCOCC4)cc3)nc3ccc(F)cc23)CC1`: the IC50 was found to be 7.13 µM.

On to `O=C(c1cc(-c2ccc(CN3CCOCC3)cc2)nc2ccc(F)cc12)N1CCC(O)CC1`, for which half-maximal inhibition (IC50) required 64 µM.

`CCC(=O)N1CCN(Cc2cc(-c3ccc(CN4CCOCC4)cc3)nc3ccc(F)cc23)CC1` registered a half-inhibitory concentration (IC50) of 10.1 µM.

On to `CC(C)(C)C(=O)N1CCN(CC(=O)Nc2cc(-c3ccc(CN4CCOCC4)cc3)nc3ccc(F)cc23)CC1`, for which the IC50 is 9.57 µM.

The compound `CC(C)(C)OC(=O)N1CCN(CCNCc2cc(-c3ccc(CN4CCOCC4)cc3)nc3ccc(F)cc23)CC1` displayed an IC50 of 0.018 µM.

The compound `CC(C)(C)OC(=O)N1CCN(CCC(=O)Nc2cc(-c3ccc(CN4CCOCC4)cc3)nc3ccc(F)cc23)CC1` came in with an IC50 of 0.26 µM.

The test system of the next series is Plasmodium falciparum. Nature of the series: Antiplasmodial activity against chloroquine and pyrimethamine resistant Plasmodium falciparum K1 erythrocytic stages incubated for 48 hrs by [3H]-hypoxanthine incorporation assay. It counts as functional, organism-based.
Details: not given
In the case of `CC(C)(C)OC(=O)N1CCN(CC(=O)Nc2cc(-c3ccc(CN4CCOCC4)cc3)nc3ccc(F)cc23)CC1`, the IC50 is 3.5 µM.

As to `CN1CCN(Cc2ccc(-c3cc(NC(=O)CCN4CCCC4)c4cc(F)ccc4n3)cc2)CC1`, inhibition was half-maximal at 0.0029 µM (IC50).

Turning to `CC(C)(C)C(=O)N1CCN(CCC(=O)Nc2cc(-c3ccc(CN4CCOCC4)cc3)nc3ccc(F)cc23)CC1`, the IC50 stood at 0.36 µM.

Regarding `O=C(CCN1CCCC1)Nc1cc(-c2ccc(CN3CCOCC3)cc2)nc2ccc(F)cc12`, the midpoint of inhibition, the IC50, lay at 0.011 µM.

`CC(C)(C)C(=O)N1CCN(CC(=O)Nc2cc(-c3ccc(CN4CCOCC4)cc3)nc3ccc(F)cc23)CC1` displayed an IC50 of 4.91 µM.

Regarding `CC(C)(C)OC(=O)N1CCN(CCNCc2cc(-c3ccc(CN4CCOCC4)cc3)nc3ccc(F)cc23)CC1`, the IC50 turned out to be 0.041 µM.

Consider `CC(C)(C)OC(=O)N1CCN(CCC(=O)Nc2cc(-c3ccc(CN4CCOCC4)cc3)nc3ccc(F)cc23)CC1`, for which half-maximal inhibition (IC50) required 0.3 µM.

System in another series: not listed separately
Nature of the series: Selectivity index, ratio of IC50 for rat L6 cells to IC50 for chloroquine-sensitive Plasmodium falciparum NF54 erythrocytic stages. It is filed as toxicity. To be noted: read-out: Ratio IC50.
For the compound `CC(C)(C)OC(=O)N1CCN(CC(=O)Nc2cc(-c3ccc(CN4CCOCC4)cc3)nc3ccc(F)cc23)CC1`, the selectivity ratio stood at 11.8.

`CN1CCN(Cc2ccc(-c3cc(NC(=O)CCN4CCCC4)c4cc(F)ccc4n3)cc2)CC1`: the selectivity ratio was determined as 7780.

For `CC(C)(C)C(=O)N1CCN(CCC(=O)Nc2cc(-c3ccc(CN4CCOCC4)cc3)nc3ccc(F)cc23)CC1`, the selectivity ratio was found to be 83.9.

With `O=C(NCCc1ccccn1)c1cc(-c2ccc(CN3CCOCC3)cc2)nc2ccc(F)cc12`, the selectivity ratio amounted to 3.6.

Regarding `O=C(CCN1CCCC1)Nc1cc(-c2ccc(CN3CCOCC3)cc2)nc2ccc(F)cc12`, the selectivity ratio is 30800.

`O=C(NCC(F)(F)F)c1cc(-c2ccc(CN3CCOCC3)cc2)nc2ccc(F)cc12`: the selectivity ratio was found to be 11.3.

Turning to `CCCN1CCN(Cc2cc(-c3ccc(CN4CCOCC4)cc3)nc3ccc(F)cc23)CC1`, the selectivity ratio worked out at 7.67.

As to `CCC(=O)N1CCN(C(=O)c2cc(-c3ccc(CN4CCOCC4)cc3)nc3ccc(F)cc23)CC1`, the selectivity ratio came to 12.6.

On to `CCOC(=O)N1CCC(NC(=O)c2cc(-c3ccc(CN4CCOCC4)cc3)nc3ccc(F)cc23)CC1`, for which the selectivity ratio stood at 12.7.

Consider `O=C(c1cc(-c2ccc(CN3CCOCC3)cc2)nc2ccc(F)cc12)N1CCC(O)CC1`, for which the selectivity ratio stood at 1.57.

For `CCC(=O)N1CCN(Cc2cc(-c3ccc(CN4CCOCC4)cc3)nc3ccc(F)cc23)CC1`, the selectivity ratio was 3.83.

In the case of `CC(C)(C)C(=O)N1CCN(CC(=O)Nc2cc(-c3ccc(CN4CCOCC4)cc3)nc3ccc(F)cc23)CC1`, the selectivity ratio was 7.82.

For the compound `CC(C)(C)OC(=O)N1CCN(CCNCc2cc(-c3ccc(CN4CCOCC4)cc3)nc3ccc(F)cc23)CC1`, the selectivity ratio is 1100.

With `CC(C)(C)OC(=O)N1CCN(CCC(=O)Nc2cc(-c3ccc(CN4CCOCC4)cc3)nc3ccc(F)cc23)CC1`, the selectivity ratio turned out to be 216.

System in the next series: not listed separately
Nature of the series: Selectivity index, ratio of IC50 for rat L6 cells to IC50 for chloroquine and pyrimethamine resistant Plasmodium falciparum K1. It counts as toxicity. The settings on record: read-out: Ratio IC50.
Take `CC(C)(C)OC(=O)N1CCN(CC(=O)Nc2cc(-c3ccc(CN4CCOCC4)cc3)nc3ccc(F)cc23)CC1`: the selectivity ratio was 25.5.

As to `CN1CCN(Cc2ccc(-c3cc(NC(=O)CCN4CCCC4)c4cc(F)ccc4n3)cc2)CC1`, the selectivity ratio is 5370.

As to `CC(C)(C)C(=O)N1CCN(CCC(=O)Nc2cc(-c3ccc(CN4CCOCC4)cc3)nc3ccc(F)cc23)CC1`, the selectivity ratio stood at 124.

On to `O=C(CCN1CCCC1)Nc1cc(-c2ccc(CN3CCOCC3)cc2)nc2ccc(F)cc12`, for which the selectivity ratio is 11200.

Regarding `CC(C)(C)C(=O)N1CCN(CC(=O)Nc2cc(-c3ccc(CN4CCOCC4)cc3)nc3ccc(F)cc23)CC1`, the selectivity ratio is 15.2.

As to `CC(C)(C)OC(=O)N1CCN(CCNCc2cc(-c3ccc(CN4CCOCC4)cc3)nc3ccc(F)cc23)CC1`, the selectivity ratio worked out at 484.

Consider `CC(C)(C)OC(=O)N1CCN(CCC(=O)Nc2cc(-c3ccc(CN4CCOCC4)cc3)nc3ccc(F)cc23)CC1`, for which the selectivity ratio is 187.

The test system of the next series is L6. Nature of the series: Cytotoxicity in rat L6 cells assessed as reduction in cell viability incubated for 72 hrs by alamar blue assay. It is filed as cell-based. The settings on record: L6, 72 h, read-out: IC50.
In the case of `CC(C)(C)OC(=O)N1CCN(CC(=O)Nc2cc(-c3ccc(CN4CCOCC4)cc3)nc3ccc(F)cc23)CC1`, the IC50 turned out to be 89.2 µM.

On to `CN1CCN(Cc2ccc(-c3cc(NC(=O)CCN4CCCC4)c4cc(F)ccc4n3)cc2)CC1`, for which the IC50 came to 15.6 µM.

On to `CC(C)(C)C(=O)N1CCN(CCC(=O)Nc2cc(-c3ccc(CN4CCOCC4)cc3)nc3ccc(F)cc23)CC1`, for which the IC50 is 44.5 µM.

On to `O=C(NCCc1ccccn1)c1cc(-c2ccc(CN3CCOCC3)cc2)nc2ccc(F)cc12`, for which the IC50 is 53.5 µM.

On to `O=C(CCN1CCCC1)Nc1cc(-c2ccc(CN3CCOCC3)cc2)nc2ccc(F)cc12`, for which the IC50 was 123 µM.

On to `O=C(NCC(F)(F)F)c1cc(-c2ccc(CN3CCOCC3)cc2)nc2ccc(F)cc12`, for which the IC50 was 98.9 µM.

Take `CCCN1CCN(Cc2cc(-c3ccc(CN4CCOCC4)cc3)nc3ccc(F)cc23)CC1`: the IC50 was 14.9 µM.

Regarding `CCC(=O)N1CCN(C(=O)c2cc(-c3ccc(CN4CCOCC4)cc3)nc3ccc(F)cc23)CC1`, the IC50 worked out at 92.4 µM.

With `CCOC(=O)N1CCC(NC(=O)c2cc(-c3ccc(CN4CCOCC4)cc3)nc3ccc(F)cc23)CC1`, the IC50 worked out at 90.5 µM.

`O=C(c1cc(-c2ccc(CN3CCOCC3)cc2)nc2ccc(F)cc12)N1CCC(O)CC1`: the IC50 was determined as 101 µM.

Turning to `CCC(=O)N1CCN(Cc2cc(-c3ccc(CN4CCOCC4)cc3)nc3ccc(F)cc23)CC1`, the IC50 amounted to 38.6 µM.

Regarding `CC(C)(C)C(=O)N1CCN(CC(=O)Nc2cc(-c3ccc(CN4CCOCC4)cc3)nc3ccc(F)cc23)CC1`, the IC50 is 74.8 µM.

Consider `CC(C)(C)OC(=O)N1CCN(CCNCc2cc(-c3ccc(CN4CCOCC4)cc3)nc3ccc(F)cc23)CC1`, for which the IC50 was found to be 19.8 µM.

Regarding `CC(C)(C)OC(=O)N1CCN(CCC(=O)Nc2cc(-c3ccc(CN4CCOCC4)cc3)nc3ccc(F)cc23)CC1`, the IC50 was 56.2 µM.

System in the next series: not listed separately
Nature of the series: Effective permeability by PAMPA. It counts as ADME. To be noted: read-out: Peff. Background: In PAMPA a lipid-coated filter parts donor from acceptor wells.
`O=C(NCCc1ccccn1)c1cc(-c2ccc(CN3CCOCC3)cc2)nc2ccc(F)cc12`: the Papp stood at 9.35 ×10⁻⁶ cm/s.

With `O=C(CCN1CCCC1)Nc1cc(-c2ccc(CN3CCOCC3)cc2)nc2ccc(F)cc12`, the Papp stood at 10.1 ×10⁻⁶ cm/s.

On to `CCCN1CCN(Cc2cc(-c3ccc(CN4CCOCC4)cc3)nc3ccc(F)cc23)CC1`, for which the Papp is 9.26 ×10⁻⁶ cm/s.

With `CCC(=O)N1CCN(C(=O)c2cc(-c3ccc(CN4CCOCC4)cc3)nc3ccc(F)cc23)CC1`, the Papp is 5.53 ×10⁻⁶ cm/s.

As for `CCOC(=O)N1CCC(NC(=O)c2cc(-c3ccc(CN4CCOCC4)cc3)nc3ccc(F)cc23)CC1`, the Papp came out at 0.19 ×10⁻⁶ cm/s.

Turning to `O=C(c1cc(-c2ccc(CN3CCOCC3)cc2)nc2ccc(F)cc12)N1CCC(O)CC1`, the Papp was determined as 3.67 ×10⁻⁶ cm/s.

As to `CCC(=O)N1CCN(Cc2cc(-c3ccc(CN4CCOCC4)cc3)nc3ccc(F)cc23)CC1`, the Papp worked out at 7.15 ×10⁻⁶ cm/s.

For the compound `CC(C)(C)OC(=O)N1CCN(CCNCc2cc(-c3ccc(CN4CCOCC4)cc3)nc3ccc(F)cc23)CC1`, the Papp was determined as 4.57 ×10⁻⁶ cm/s.

The next series relates to Plasmodium berghei. Nature of the series: Antiplasmodial activity against GFP-transfected Plasmodium berghei ANKA infected in NMRI mouse assessed as reduction in parasitaemia at 50 mg/kg/day, ip for consecutive 4 days (4, 24, 48 and 72 hrs post infection) and measured up to 20 days after infection relative to untreated control. It counts as functional. Details: scale not given: the % may be the effect or the level left.
Details: not given
Turning to `CN1CCN(Cc2ccc(-c3cc(NC(=O)CCN4CCCC4)c4cc(F)ccc4n3)cc2)CC1`, the Activity was 99.6%.

`O=C(CCN1CCCC1)Nc1cc(-c2ccc(CN3CCOCC3)cc2)nc2ccc(F)cc12`: the Activity is on record as 33.9%.

In a further series the test system is Plasmodium berghei.
Details: not given
In the case of `CN1CCN(Cc2ccc(-c3cc(NC(=O)CCN4CCCC4)c4cc(F)ccc4n3)cc2)CC1`, the MSD came out at 16 days.

On to `O=C(CCN1CCCC1)Nc1cc(-c2ccc(CN3CCOCC3)cc2)nc2ccc(F)cc12`, for which the MSD amounted to 4 days.

(Values after ChEMBL document CHEMBL4392851, “Synthesis and structure-activity relationships for new 6-fluoroquinoline derivatives with antiplasmodial activity” (Bioorg Med Chem, 2019).)
